According to patent US12023315B2, “Pharmaceutical compositions and methods utilizing neostigmine and an NK-1 antagonist for treating myasthenia gravis” (priority 2017, dated 2024):

Test system: gastro-intestinal side effects of neostigmine in human subjects
Test: Phase I single-blind, placebo-controlled study: single oral neostigmine bromide with or without single oral aprepitant
Format: in vivo
Details: human volunteers; single oral aprepitant (up to 125 mg) co-administered with first intolerable oral dose (FID) of neostigmine bromide; follow-up up to 8 hours
Procedure: The ability of the NK1-antagonists for preventing the adverse effects of orally administered neostigmine bromide in humans is tested.
A Phase I study is conducted in human subjects receiving a single oral dose of neostigmine bromide with or without a single oral dose of aprepitant hydrochloride dihydrate, as a representative NK1-antagonist. The study is a single center, single-blind, placebo-controlled study.
To be enrolled in the study, participants are to meet the following inclusion/exclusion criteria:
Key Inclusion Criteria • 1. Male or female volunteers between the ages of 18 and 60 years inclusive are required to be in good health, to refrain from consuming xanthine, quinine and caffeine containing beverages, and to refrain from prolonged intensive physical exercise during the study conduct. • 2. […] Subjects had to be in good health according to their medical history including personal and family psychiatric history, physical examination, ECG, vital signs, and laboratory tests. […] Subjects had to be able to swallow multiple pills simultaneously.
Key Exclusion Criteria • 1. Any clinically relevant acute or chronic disease which could interfere with the subjects' safety during the trial, expose them to undue risk, or interfere with the study objectives. • 2. […]

In the case of `C[C@@H](O[C@H]1OCCN(Cc2nc(=O)[nH][nH]2)[C@H]1c1ccc(F)cc1)c1cc(C(F)(F)F)cc(C(F)(F)F)c1` [aprepitant, 5-[[(2R,3S)-2-[(1R)-1-[3,5-bis(trifluoromethyl)phenyl]ethoxy]-3-(4-fluorophenyl)-4-morpholinyl]methyl]-1,2-dihydro-3H-1,2,4-triazol-3-one], the “occurrence of gastro-intestinal AEs with neostigmine” value is reported as “prevents or attenuates the occurrence of gastro-intestinal AEs”.
